Source: patent US10294202B2, “Pyrrolidinones as herbicides” (FMC Corporation, priority 2013, dated 2019)
Like-named read-outs stand apart in the source and are kept apart here.

Experiments:
[1] = system: giant foxtail; assay: Test A pre-/postemergence herbicide test; assay type: in vivo, Setaria faberii
How it was run: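 Greenhouse pot test with pre- and postemergence application of surfactant-containing solvent formulations. Postemergence plants were 2–10 cm, one- to two-leaf stage. Response scored visually after ~10 days, 0 (no effect) to 100 (complete control).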

[2] = system: barnyardgrass; assay: Test B flooded paddy test; assay type: in vivo, Echinochloa crus-galli; conditions: Flood, scale of 0 to 100 where 0 is no effect and 100 is complete control
How it was run: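 Treatment was made at the 2-leaf stage by dosing the standing floodwater, kept 3 cm above soil level for the whole test. Greenhouse exposure lasted 13 to 15 days. Response is a visual percent rating relative to controls, where a dash indicates no test result.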

[3] = system: corn; assay: Test C pre-/postemergence herbicide test; assay type: in vivo, Zea mays
How it was run: (§1)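 Greenhouse pots; formulation = non-phytotoxic solvent mix + surfactant. PRE onto seeds in loam:sand; POST at 1–4 leaves (2–18 cm) in peat moss/vermiculite medium. Read-out: visual % control vs untreated, day 13–15.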

[4] = system: crabgrass, large; assay: Test C pre-/postemergence herbicide test; assay type: in vivo, Digitaria sanguinalis
How it was run: as §1

[5] = system: foxtail, giant; assay: Test C pre-/postemergence herbicide test; assay type: in vivo, Setaria faberii
How it was run: as §1

[6] = system: pigweed; assay: Test C pre-/postemergence herbicide test; assay type: in vivo, Amaranthus retroflexus
How it was run: as §1

[7] = system: velvetleaf; assay: Test C pre-/postemergence herbicide test; assay type: in vivo, Abutilon theophrasti
How it was run: as §1

[8] = Postemergence, 31 g ai/ha, scale 0 (no effect) to 100 (complete control)
[9] = Postemergence, 62 g ai/ha, scale 0 to 100 (0 no effect, 100 complete control)
[10] = Postemergence, 125 g ai/ha, scale 0 to 100 (0 no effect, 100 complete control)
[11] = Postemergence, 250 g ai/ha, scale 0 to 100 (0 no effect, 100 complete control)
[12] = Preemergence, 31 g ai/ha, scale 0 to 100, 0 is no effect and 100 is complete control
[13] = Preemergence, 62 g ai/ha, scale 0 to 100
[14] = Preemergence, 125 g ai/ha, scale 0 to 100 (0 no effect, 100 complete control)
[15] = 125 g ai/ha, visual rating, 0 to 100 scale, 0 no effect, 100 complete control, approximately 10 days, preemergence
[16] = Postemergence, 125 g ai/ha, 0 to 100 scale, 0 is no effect, 100 is complete control
[17] = preemergence, 500 g ai/ha, 0 to 100 scale, 0 is no effect and 100 is complete control
[18] = Preemergence, 62 g ai/ha, scale 0 to 100 (0 no effect, 100 complete control)
[19] = Postemergence, 31 g ai/ha, scale 0 to 100 (0 no effect, 100 complete control)
[20] = Postemergence, 62 g ai/ha, scale 0 (no effect) to 100 (complete control)

O=C1NCC(c2ccc(C(F)(F)F)cc2)C1C(=O)Nc1ccccc1F (centres unmarked) [Compound 79, N-(2-fluorophenyl)-2-oxo-4-[4-(trifluoromethyl)phenyl]-3-pyrrolidinecarboxamide]
Foxtail, Giant plant response rating ([1]; Preemergence, 125 g ai/ha, visual rating on 0 to 100 scale (0 no effect, 100 complete control)): 90
pest or weed control at 125 g/ha ([1]; Setaria faberi, post-emergence, 240 h, Postemergence, 125 g ai/ha, 0 to 100 scale, 0 no effect, 100 complete control, read-out: Plant response rating, Foxtail, Giant): 80%
pest or weed control at 500 g/ha ([1]; Setaria faberi, post-emergence, 240 h, Postemergence, 500 g ai/ha, 0 to 100 scale (0 no effect, 100 complete control), read-out: Plant response rating, Foxtail, Giant): 80%
pest or weed control at 500 g/ha ([1]; Setaria faberi, pre-emergence, 240 h, preemergence, 500 g ai/ha, 0 to 100 scale, read-out: Plant response rating, Foxtail, Giant): 90%
Plant response rating, Barnyardgrass ([2]; 250 g ai/ha): 0
Plant response rating, Corn [3, 8]: 0
Plant response rating, Corn [3, 9]: 0
Plant response rating, Corn [3, 10]: 0
Plant response rating, Corn [3, 11]: 0
Corn plant response rating [3, 12]: 0
Plant response rating, Corn [3, 13]: 0
Plant response rating, Corn [3, 14]: 10
Plant response rating (scale of 0 to 100), Corn ([3]; Preemergence, 250 g ai/ha): 30
Plant response rating, Crabgrass, Large [4, 8]: 5
Plant response rating, Crabgrass, Large [4, 9]: 5
Plant response rating, Crabgrass, Large [4, 10]: 65
Plant response rating, Crabgrass, Large [4, 11]: 75
Crabgrass, Large plant response rating [4, 12]: 95
Plant response rating, Crabgrass, Large [4, 13]: 98
Plant response rating, Crabgrass, Large [4, 14]: 100
Plant response rating (scale of 0 to 100), Crabgrass, Large ([4]; Preemergence, 250 g ai/ha): 100
Plant response rating, Foxtail, Giant [5, 8]: 15
Plant response rating, Foxtail, Giant [5, 9]: 15
Plant response rating, Foxtail, Giant [5, 10]: 15
Plant response rating, Foxtail, Giant [5, 11]: 15
Foxtail, Giant plant response rating [5, 12]: 80
Plant response rating, Foxtail, Giant [5, 13]: 90
Plant response rating, Foxtail, Giant [5, 14]: 95
Plant response rating (scale of 0 to 100), Foxtail, Giant ([5]; Preemergence, 250 g ai/ha): 98
Plant response rating, Pigweed [6, 8]: 35
Plant response rating, Pigweed [6, 9]: 35
Plant response rating, Pigweed [6, 10]: 35
Plant response rating, Pigweed [6, 11]: 35
Pigweed plant response rating [6, 12]: 10
Plant response rating, Pigweed [6, 13]: 40
Plant response rating, Pigweed [6, 14]: 50
Plant response rating (scale of 0 to 100), Pigweed ([6]; Preemergence, 250 g ai/ha): 65
Plant response rating, Velvetleaf [7, 8]: 0
Plant response rating, Velvetleaf [7, 9]: 0
Plant response rating, Velvetleaf [7, 10]: 0
Plant response rating, Velvetleaf [7, 11]: 0
Velvetleaf plant response rating [7, 12]: 0
Plant response rating, Velvetleaf [7, 13]: 0
Plant response rating, Velvetleaf [7, 14]: 20
Plant response rating (scale of 0 to 100), Velvetleaf ([7]; Preemergence, 250 g ai/ha): 35

O=C1NCC(c2ccc(Cl)cc2)C1C(=O)Nc1cccc(F)c1F (centres unmarked) [Compound 218]
Plant response rating, Foxtail, Giant [1, 15]: 90
Plant response rating, Foxtail, Giant [1, 16]: 60
Foxtail, Giant plant response rating (0 to 100 scale, 0 is no effect, 100 is complete control) ([1]; Postemergence, 500 g ai/ha): 90
Plant response rating, Foxtail, Giant [1, 17]: 90
Plant response rating, Barnyardgrass ([2]; 500 g ai/ha): 70
Corn plant response rating [3, 12]: 0
Corn plant response rating [3, 18]: 0
Plant response rating, Corn [3, 14]: 0
Plant response rating (scale of 0 to 100), Corn ([3]; Preemergence, 250 g ai/ha): 0
Crabgrass, Large plant response rating [4, 12]: 90
Crabgrass, Large plant response rating [4, 18]: 90
Plant response rating, Crabgrass, Large [4, 14]: 100
Plant response rating (scale of 0 to 100), Crabgrass, Large ([4]; Preemergence, 250 g ai/ha): 100
Foxtail, Giant plant response rating [5, 12]: 85
Foxtail, Giant plant response rating [5, 18]: 90
Plant response rating, Foxtail, Giant [5, 14]: 90
Plant response rating (scale of 0 to 100), Foxtail, Giant ([5]; Preemergence, 250 g ai/ha): 95
Pigweed plant response rating [6, 12]: 5
Pigweed plant response rating [6, 18]: 50
Plant response rating, Pigweed [6, 14]: 75
Plant response rating (scale of 0 to 100), Pigweed ([6]; Preemergence, 250 g ai/ha): 85
Velvetleaf plant response rating [7, 12]: 0
Velvetleaf plant response rating [7, 18]: 0
Plant response rating, Velvetleaf [7, 14]: 15
Plant response rating (scale of 0 to 100), Velvetleaf ([7]; Preemergence, 250 g ai/ha): 40

O=C1NCC(c2ccc(C(F)(F)F)cc2)C1C(=O)Nc1ccccc1F (centres unmarked) [Compound 231]
Plant response rating, Foxtail, Giant [1, 15]: 90
Plant response rating, Foxtail, Giant [1, 16]: 70
Foxtail, Giant plant response rating (0 to 100 scale, 0 is no effect, 100 is complete control) ([1]; Postemergence, 500 g ai/ha): 90
Plant response rating, Foxtail, Giant [1, 17]: 90
Plant response rating, Barnyardgrass ([2]; 500 g ai/ha): 0
Corn plant response rating [3, 12]: 0
Corn plant response rating [3, 18]: 5
Plant response rating, Corn [3, 14]: 70
Plant response rating (scale of 0 to 100), Corn ([3]; Preemergence, 250 g ai/ha): 85
Crabgrass, Large plant response rating [4, 12]: 90
Crabgrass, Large plant response rating [4, 18]: 95
Plant response rating, Crabgrass, Large [4, 14]: 100
Plant response rating (scale of 0 to 100), Crabgrass, Large ([4]; Preemergence, 250 g ai/ha): 100
Foxtail, Giant plant response rating [5, 12]: 90
Foxtail, Giant plant response rating [5, 18]: 90
Plant response rating, Foxtail, Giant [5, 14]: 98
Plant response rating (scale of 0 to 100), Foxtail, Giant ([5]; Preemergence, 250 g ai/ha): 95
Pigweed plant response rating [6, 12]: 35
Pigweed plant response rating [6, 18]: 70
Plant response rating, Pigweed [6, 14]: 85
Plant response rating (scale of 0 to 100), Pigweed ([6]; Preemergence, 250 g ai/ha): 90
Velvetleaf plant response rating [7, 12]: 10
Velvetleaf plant response rating [7, 18]: 25
Plant response rating, Velvetleaf [7, 14]: 35
Plant response rating (scale of 0 to 100), Velvetleaf ([7]; Preemergence, 250 g ai/ha): 60

CN1CC(c2cccc(C(F)(F)F)c2)C(C(=O)Nc2cccc(F)c2F)C1=O (centres unmarked) [Compound 305]
Plant response rating, Foxtail, Giant ([1]; Postemergence, 125 g ai/ha, visual rating on 0 to 100 scale (0 no effect, 100 complete control), approx. 10 days): 80
Plant response rating, Foxtail, Giant ([1]; Postemergence, 500 g ai/ha, 0 to 100 scale (0 no effect, 100 complete control)): 80
Plant response rating, Foxtail, Giant ([1]; Preemergence, 125 g ai/ha, 0 to 100 scale where 0 is no effect and 100 is complete control): 90
Foxtail, Giant plant response rating ([1]; Preemergence, 500 g ai/ha, visual rating on 0 to 100 scale (0 no effect, 100 complete control)): 90
Plant response rating, Barnyardgrass ([2]; 500 g ai/ha): 75
Plant response rating, Corn [3, 19]: 0
Plant response rating, Corn [3, 20]: 5
Plant response rating, Corn [3, 10]: 40
Plant response rating, Corn [3, 11]: 45
Corn plant response rating [3, 12]: 65
Corn plant response rating [3, 18]: 75
Plant response rating, Corn [3, 14]: 75
Plant response rating (scale of 0 to 100), Corn ([3]; Preemergence, 250 g ai/ha): 80
Plant response rating, Crabgrass, Large [4, 19]: 40
Plant response rating, Crabgrass, Large [4, 20]: 55
Plant response rating, Crabgrass, Large [4, 10]: 75
Plant response rating, Crabgrass, Large [4, 11]: 80
Crabgrass, Large plant response rating [4, 12]: 95
Crabgrass, Large plant response rating [4, 18]: 95
Plant response rating, Crabgrass, Large [4, 14]: 90
Plant response rating (scale of 0 to 100), Crabgrass, Large ([4]; Preemergence, 250 g ai/ha): 95
Plant response rating, Foxtail, Giant [5, 19]: 0
Plant response rating, Foxtail, Giant [5, 20]: 65
Plant response rating, Foxtail, Giant [5, 10]: 85
Plant response rating, Foxtail, Giant [5, 11]: 90
Foxtail, Giant plant response rating [5, 12]: 95
Foxtail, Giant plant response rating [5, 18]: 95
Plant response rating, Foxtail, Giant [5, 14]: 95
Plant response rating (scale of 0 to 100), Foxtail, Giant ([5]; Preemergence, 250 g ai/ha): 95
Plant response rating, Pigweed [6, 19]: 55
Plant response rating, Pigweed [6, 20]: 60
Plant response rating, Pigweed [6, 10]: 65
Plant response rating, Pigweed [6, 11]: 65
Pigweed plant response rating [6, 12]: 10
Pigweed plant response rating [6, 18]: 70
Plant response rating, Pigweed [6, 14]: 80
Plant response rating (scale of 0 to 100), Pigweed ([6]; Preemergence, 250 g ai/ha): 85
Plant response rating, Velvetleaf [7, 19]: 10
Plant response rating, Velvetleaf [7, 20]: 40
Plant response rating, Velvetleaf [7, 10]: 40
Plant response rating, Velvetleaf [7, 11]: 65
Velvetleaf plant response rating [7, 12]: 25
Velvetleaf plant response rating [7, 18]: 30
Plant response rating, Velvetleaf [7, 14]: 55
Plant response rating (scale of 0 to 100), Velvetleaf ([7]; Preemergence, 250 g ai/ha): 55
